In patent US20250154144A1 (CHILDREN'S HOSPITAL MEDICAL CENTER, priority 2021, published 2025):
Like-named read-outs stand apart in the source and are kept apart here.

How the values were obtained:
[1] = system: MOLM14 D835Y cells; assay: cells; assay type: cell-based; conditions: Homo sapiens, MOLM-14, 48 h, 48 hours, Cell Titer Glo; read-out: MOLM14 D835Y IC50
[2] = molecular target: T1, FLT3 (Homo sapiens, UniProt P36888); assay: Reaction Biology NanoBRET target engagement assay in HEK-293 cells, FLT3
T1 sequence (P36888 27-993): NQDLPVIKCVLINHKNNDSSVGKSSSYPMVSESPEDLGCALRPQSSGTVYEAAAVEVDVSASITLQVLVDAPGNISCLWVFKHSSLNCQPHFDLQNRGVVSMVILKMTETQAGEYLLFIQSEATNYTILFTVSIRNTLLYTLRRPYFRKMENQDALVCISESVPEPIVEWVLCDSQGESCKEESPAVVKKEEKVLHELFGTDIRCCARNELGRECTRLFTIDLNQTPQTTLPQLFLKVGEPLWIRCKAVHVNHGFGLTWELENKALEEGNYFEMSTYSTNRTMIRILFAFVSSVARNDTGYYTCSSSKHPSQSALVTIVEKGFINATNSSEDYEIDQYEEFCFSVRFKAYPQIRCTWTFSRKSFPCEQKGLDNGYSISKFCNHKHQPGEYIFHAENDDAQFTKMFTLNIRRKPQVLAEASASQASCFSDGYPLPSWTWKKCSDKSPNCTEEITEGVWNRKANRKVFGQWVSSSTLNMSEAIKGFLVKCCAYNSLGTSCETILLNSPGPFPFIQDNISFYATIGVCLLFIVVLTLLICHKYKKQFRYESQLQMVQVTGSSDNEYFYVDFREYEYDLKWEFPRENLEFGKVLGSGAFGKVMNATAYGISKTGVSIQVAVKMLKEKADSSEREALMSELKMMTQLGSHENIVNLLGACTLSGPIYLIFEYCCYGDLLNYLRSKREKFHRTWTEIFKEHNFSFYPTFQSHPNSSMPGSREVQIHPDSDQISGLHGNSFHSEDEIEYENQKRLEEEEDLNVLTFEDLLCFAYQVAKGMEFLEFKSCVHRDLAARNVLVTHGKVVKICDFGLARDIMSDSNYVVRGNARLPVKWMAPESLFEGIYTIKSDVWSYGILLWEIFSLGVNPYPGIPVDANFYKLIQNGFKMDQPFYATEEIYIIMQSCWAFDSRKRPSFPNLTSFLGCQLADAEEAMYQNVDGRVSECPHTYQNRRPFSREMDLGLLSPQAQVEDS

[3] = molecular target: T2, FLT3 ITD, D835V (Homo sapiens, UniProt P36888, D835V, form not given); assay: DiscoverX KINOMEscan competition binding, FLT3 ITD, D835V; conditions: read-out: FLT3 ITD, D835V Kd
T2 sequence (P36888 1-993 D835V): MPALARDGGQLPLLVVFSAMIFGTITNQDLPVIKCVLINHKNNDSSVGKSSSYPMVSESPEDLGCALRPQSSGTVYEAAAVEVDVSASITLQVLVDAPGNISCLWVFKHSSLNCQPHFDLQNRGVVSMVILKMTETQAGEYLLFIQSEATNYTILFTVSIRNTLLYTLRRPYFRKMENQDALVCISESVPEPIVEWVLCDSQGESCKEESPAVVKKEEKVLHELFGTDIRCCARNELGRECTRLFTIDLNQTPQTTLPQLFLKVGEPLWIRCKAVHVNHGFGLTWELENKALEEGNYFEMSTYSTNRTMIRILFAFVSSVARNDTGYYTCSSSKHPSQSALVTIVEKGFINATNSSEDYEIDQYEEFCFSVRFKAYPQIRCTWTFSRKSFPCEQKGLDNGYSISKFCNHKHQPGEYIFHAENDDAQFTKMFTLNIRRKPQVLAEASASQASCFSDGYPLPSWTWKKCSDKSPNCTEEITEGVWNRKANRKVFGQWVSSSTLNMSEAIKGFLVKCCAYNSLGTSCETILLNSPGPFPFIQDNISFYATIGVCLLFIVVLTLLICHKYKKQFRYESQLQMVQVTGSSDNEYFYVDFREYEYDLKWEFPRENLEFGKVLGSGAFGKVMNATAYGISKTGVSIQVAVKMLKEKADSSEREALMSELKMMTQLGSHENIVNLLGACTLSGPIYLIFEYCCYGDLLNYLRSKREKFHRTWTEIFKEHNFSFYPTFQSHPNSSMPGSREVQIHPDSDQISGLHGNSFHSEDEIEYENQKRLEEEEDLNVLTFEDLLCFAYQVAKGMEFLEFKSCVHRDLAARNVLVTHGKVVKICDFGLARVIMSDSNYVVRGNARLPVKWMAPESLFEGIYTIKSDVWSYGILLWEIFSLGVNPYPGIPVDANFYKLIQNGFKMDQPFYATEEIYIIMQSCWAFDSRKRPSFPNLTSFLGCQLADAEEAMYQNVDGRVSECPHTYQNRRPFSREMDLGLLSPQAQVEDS

[4] = molecular target: T3, IRAK4 (Homo sapiens, UniProt Q9NWZ3); assay: DiscoverX KINOMEscan competition binding, IRAK4; set-up: purchased RBC (Reaction Biology) HotSpot assay
T3 sequence (Q9NWZ3 1-460): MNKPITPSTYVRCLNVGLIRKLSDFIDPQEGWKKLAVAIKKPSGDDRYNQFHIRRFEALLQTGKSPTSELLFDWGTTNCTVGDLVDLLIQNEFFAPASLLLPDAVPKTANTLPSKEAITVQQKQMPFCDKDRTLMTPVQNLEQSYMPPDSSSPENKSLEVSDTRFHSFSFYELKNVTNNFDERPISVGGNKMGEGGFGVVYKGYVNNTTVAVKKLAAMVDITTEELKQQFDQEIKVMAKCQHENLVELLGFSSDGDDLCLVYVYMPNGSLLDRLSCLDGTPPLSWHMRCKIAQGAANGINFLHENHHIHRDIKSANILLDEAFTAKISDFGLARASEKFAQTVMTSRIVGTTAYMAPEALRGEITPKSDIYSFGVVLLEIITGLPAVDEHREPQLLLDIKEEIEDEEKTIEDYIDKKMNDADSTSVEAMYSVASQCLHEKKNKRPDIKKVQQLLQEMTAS

[5] = NanoBRET FLT3 IC50, HEK-293 cells

Compound | IC50 [1] | IC50 [2, 5] | Kd [3] | Kd [4] | IC50 [2]
COc1cc2ncc(-c3ccnc(N[C@H]4CNCC[C@@H]4F)n3)n2nc1C1CC1 [Compound 51, 4-(6-cyclopropyl-7-methoxyimidazo[1,2-b]pyridazin-3-yl)-N-((3S,4S)-4-fluoropiperidin-3-yl)pyrimidin-2-amine] | 6 nM | 9 nM | 0.07 nM | 0.57 nM | 
COc1cc2ncc(-c3ccnc(N[C@H]4CNC[C@@H]4F)n3)n2nc1C1CC1 [Compound 49, 4-(6-cyclopropyl-7-methoxyimidazo[1,2-b]pyridazin-3-yl)-N-((3S,4S)-4-fluoropyrrolidin-3-yl)pyrimidin-2-amine] | 24 nM |  | 0.04 nM | 0.56 nM | 
CC(O)(c1cn2c(-c3ccnc(N[C@H]4CNCC[C@@H]4F)n3)cnc2cn1)C(F)(F)F (single isomer, unassigned) [Compound 72] | 55 nM | 992 nM | 0.08 nM | 0.38 nM | 
COc1cc2ncc(-c3cncc(N[C@H]4CNCC[C@@H]4F)n3)n2nc1C1CC1 [Compound 24, 6-(6-cyclopropyl-7-methoxyimidazo[1,2-b]pyridazin-3-yl)-N-((3S,4S)-4-fluoropiperidin-3-yl)pyrazin-2-amine] |  | 19 nM | 0.045 nM | 0.22 nM | 
COc1cc2ncc(-c3cncc(N[C@H]4CNC[C@@H]4F)n3)n2nc1C1CC1 [Compound 22, 6-(6-cyclopropyl-7-methoxyimidazo[1,2-b]pyridazin-3-yl)-N-((3S,4S)-4-fluoropyrrolidin-3-yl)pyrazin-2-amine] |  |  | 0.058 nM | 0.84 nM | 322 nM
F[C@H]1CCNC[C@@H]1Nc1cncc(-c2cnc3cc(OC4CC4)ccn23)n1 [Compound 12, 6-(7-cyclopropoxyimidazo[1,2-a]pyridin-3-yl)-N-((3S,4S)-4-fluoropiperidin-3-yl)pyrazin-2-amine] | 34 nM | 177 nM | 0.035 nM | 0.81 nM | 
COc1cc2ncc(-c3ccnc(N[C@@H]4CCCNC4)n3)n2cc1C(C)(C)O [Compound 44, (R)-2-(7-methoxy-3-(2-(piperidin-3-ylamino)pyrimidin-4-yl)imidazo[1,2-a]pyridin-6-yl)propan-2-ol] | 11 nM | 18 nM | 0.009 nM | 0.072 nM | 
COc1cc2ncc(-c3ccnc(N[C@@H]4CCCNC4)n3)n2nc1C1CC1 [Compound 50, (R)-4-(6-cyclopropyl-7-methoxyimidazo[1,2-b]pyridazin-3-yl)-N-(piperidin-3-yl)pyrimidin-2-amine] | 17 nM |  |  |  | 
